Measured values from patent US7601739B2, “Compounds having antiestrogenic and tissue selective estrogenic properties, and compounds with anti-androgenic properties for treatment of prostate cancer and androgen receptor dependent diseases” (Virgina Commonwealth University, priority 2006, dated 2009).
“Also recorded” adds a separate entry of the source.

Experiments:
hER = experiment: Fluorescence-based competitive binding assay for hER (displacement of fluormone ES2); design: species or system human; conditions: for Relative Binding Affinity: RBA = IC50 of tamoxifen/IC50 of test molecule, tamoxifen set at 1
Experimental: The estrogen receptor competitor assay kits (Panvera, Madison, Wis.) were used to determine the ability of test molecules to displace the fluormone, ES2, from hER -ES2 or hER -ES2 complex. Serial dilutions of each test molecule were prepared in methanol or DMSO. The recombinant hER or hER (7 nM) was preincubated with ES2 (1 nM) in screening buffer. After the preincubation, the test molecules and ER-ES2 complex solution were added into the 96-well microplate to produce a final volume of 100 μl per well. The reaction was incubated at room temperature for 1 hr and the polarization values were measured by using fluorescence microplate reader, Polarion (Tecan, Research Triangle Park, N.C.) with excitation wavelength 495 nm and emission wavelength 535 nm. The polarization value versus test molecule concentration curves was analyzed by graphfit software to generate IC50 values.
In this assay, recombinant hER and the commercial synthetic estrogen, ES2 containing fluorescence polarization property, are used. This assay is a homogenous assay. When the assay solution only contains ES2, the solution exerts weak fluorescence polarization property due to the quick rotation of free ES2 molecule. […] Addition of the antiestrogen to the ES2/hER displaces ES2 from hER and results in the whole solution exerting less fluorescence polarization property than the solution without antiestrogen.

MCF-7 cells = experiment: hERα positive breast cancer cell proliferation assay; type: cell-based, human; conditions: for activity at 5 µM: Homo sapiens, MCF7, 72 h, MCF-7 cells, DMSO = 1, read-out: Relative Cancer Cell Proliferation Effects at 5 μM
Experimental: (§1) MCF-7 or MDA-MB-231 cells were inoculated into 12-well culture plates at 10000 cells in 2 ml maintained medium per well. Cells were allowed to attach to the bottom for 24 hrs incubation, then the seeding medium was removed and replaced by the experimental medium (phenol red-free DMEM supplemented with 5% charcoal-stripped fetal bovine serum and Penicillin (100 unit/ml)/Streptomycin ([…])). After 24 hr incubation, the test molecules dissolved in DMSO were added in the wells. […] The culture was continued for 3 days and the medium and tested compounds were replaced every two days. The final cell numbers were estimated with CellTiter proliferation assay kit (Promega, Madison, Wis.) by measuring the absorbance at 570 nm, which is directly proportional to the number of living cells in the culture.
MCF-7 cell line was used to perform this assay and the description of this assay as mentioned above. […] DMSO was used as reference.

MDA-MB-231 cells = experiment: hER negative breast cancer cell proliferation assay; type: cell-based, human; conditions: hER negative cell line
Experimental: as §1
In this assay, MDA-MB-231 breast cancer cell line, a hER negative cell line, was used. DMSO was used as reference.

hERα = target: T1, hERα (Homo sapiens, UniProt P03372); experiment: Yeast two-hybrid and filter lift assay of hERα dimerization; type: cell-based
T1 construct: the full length hERα was inserted into pGAD-GAL4 and pGBD-GAL4 vectors; expressed in transfected cells; host or cells: S. cerevisiae Y190 transformed with pGBT-hER (pGBKT7) and pGAD-hER (pGADT7)
T1 sequence (P03372 1-595) 1: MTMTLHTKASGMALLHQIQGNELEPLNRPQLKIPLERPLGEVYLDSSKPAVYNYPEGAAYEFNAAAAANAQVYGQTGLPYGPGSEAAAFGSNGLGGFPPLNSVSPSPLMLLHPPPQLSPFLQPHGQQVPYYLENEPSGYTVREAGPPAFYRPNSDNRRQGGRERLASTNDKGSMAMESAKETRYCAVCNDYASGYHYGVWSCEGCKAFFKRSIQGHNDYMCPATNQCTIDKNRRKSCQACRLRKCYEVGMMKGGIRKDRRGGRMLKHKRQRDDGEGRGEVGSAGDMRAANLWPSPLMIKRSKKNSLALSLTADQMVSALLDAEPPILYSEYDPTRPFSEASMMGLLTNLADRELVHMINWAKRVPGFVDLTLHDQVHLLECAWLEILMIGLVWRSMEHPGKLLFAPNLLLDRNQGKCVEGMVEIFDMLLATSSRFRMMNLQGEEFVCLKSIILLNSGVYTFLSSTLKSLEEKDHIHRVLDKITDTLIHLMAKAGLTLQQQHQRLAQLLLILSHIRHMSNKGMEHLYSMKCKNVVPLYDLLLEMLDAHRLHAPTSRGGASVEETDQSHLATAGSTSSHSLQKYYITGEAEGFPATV
T1 sequence (P03372 1-595) 2: T1 sequence (P03372 1-595) 1
Experimental: The transformed yeasts with yeast two-hybrid vectors were cultured in synthetic medium lacking trytophan, and leucine. […] After that, the membranes were soaked in 0.4 ml Z-buffer/Xgal (60 mM Na2HPO4, 40 mM NaH2PO410 mM KCl, 1 mM MgSO4, 0.1% SDS, 50 mM -mercaptoethanol, 20 mM Xgal). The pictures of the results were taken within 2 and 3 hours after the -galactosidase assay was processed.
Dimerization of estrogen receptor plays an essential role in regulating estrogen receptor's functions including DNA binding, transactivation, and coactivator recruitment. In this study, yeast two hybrid and filter lift assays were used to determine the ability of compounds 2 and 6 to interrupt the dimerization of hERα. For setting up yeast two hybrid assay, the full length hERα was inserted into pGAD-GAL4 and pGBD-GAL4 vectors. In pGBD-GAL4, hERα was fused to the GAL4 DNA binding domain through its N terminus. In pGAD-GA14, hERα was fused to the GAL4 activation domain through its N terminus. When the dimerization of hERα occurs mainly through its C terminus, the GAL4 DNA binding domain binds to the repeated GAL4 response element located in front of the β-gal reporter gene and the whole complex, GAL4-BD/hERα/hERα/GAL4-AD, turns on the synthesis of the product of β-gal reporter gene. […] Filter lift assay in which X-gal was used, was employed to qualitatively determine the activity of β-galactosidase.

SMILES	Relative Binding Affinity (hER)	inhibition effects against MCF-7 cell proliferation (MCF-7 cells)	activity at 5 µM (MCF-7 cells)	proliferation effects against MDA-MB-231 cells (FIG. 6, words) (MDA-MB-231 cells)	binding affinity for hER compared with tamoxifen (hER)	inhibition of MCF-7 cell proliferation (MCF-7 cells; relative to DMSO)	inhibitory activity against hERα dimerization in combination with estrogen (hERα; combined with estrogen)	blue color change of yeast colony in combination with estrogen (hERα; estrogen's colony as reference, more blue = less inhibition)	induction of hERα dimerization, compound alone (hERα; tested alone)
CCCCNC(=O)CCCCCCCCCCOCC1Cc2ccccc2CN1C(=O)c1cccc(OC)c1 (stereo not shown) [Compound 4]	0.192	slightly lower inhibition effects than compound 6	70%	do not inhibit or stimulate the growth					
CCCCNC(=O)CCCCCCCCCCOCC1Cc2ccccc2CN1C(=O)c1cccc(O)c1 (stereo not shown) [Compound 6]	5.0	strongest inhibition effects	62%	do not inhibit or stimulate the growth	highest binding affinity and higher than tamoxifen	38%	inhibitory activity is higher than tamoxifen's; also recorded: obvious inhibitory activity	slight blue color change	did not induce hERα dimerization; also recorded: do not promote the dimerization of hERα
CCCCNC(=O)CCCCCCCCCCOCC1Cc2ccccc2CN1C(=O)c1ccc(O)cc1 (stereo not shown) [Compound 7]	1.79		95%		highest binding affinity and higher than tamoxifen				
